“Also recorded” adds a separate entry of the source. Where two headings read alike, the source gives them in different places.
Legend:
[1] = test system: AtT20 cells; assay: CRF-induced cAMP accumulation in AtT20 cells; type: cell-based, mouse
Method: Experiments for cAMP were all carried out in Hanks balanced salt solution containing 2 mM CaCl2 and 1 mM MgSO4 buffered with 25 mM HEPES pH 7.4 and supplemented with 0.25% (w/v) of bovine serum albumin. The cells were preincubated in serum free medium for 1 hour, after which blockers of phosphosdiesterase (isobutylmethylxanthine 0.5 mM (IBMX) and/or rolipram 0.1 mM) along with various other treatments were applied for 30 minutes at 37° C. Subsequently the cells were cooled to 22° C. for 5 minutes in a water bath and agonists were added for 10 minutes. The reaction was stopped by the addition of 0.2 mol/l HCl to achieve a final concentration of 0.1 mol/l (Brooker et al, (1979) Adv. in Cyclic Nucl. Res. Vol. 10, G. Brooker, P. Greengard and G. A. Robinson, Raven Press, New York, 2-34).
In some experiments cells were preincubated for 30 minutes in medium containing 2 mmol/l EGTA and no added Ca^2+, supplemented with 5 μmol/l A23187 and 2.5 μmol/l nifedipine in order to deplete rapidly mobilized cellular stores of Ca^2+. […] The rationale for this pretreatment is that calcineurin reportedly influences L-channel activity (Lai et al, (1993) J. Neurochem. 61:1333-1339; and Armstrong et al, (1987) Proc. Natl. Acad. Sci. U.S.A. 84:2518-2522), whereas the treatment regimen used here would make Ca^2+ entry independent of this regulation.
These compounds were made up in ethanol at 10^−3 mol/l and diluted with the incubation medium to the desired final concentrations. In some cases cells were preincubated with L685,818 the structural analogue of FK506 that binds to FKBP-12 and inhibits prolyl-isomerase activity but is devoid of immunosuppressant activity (Dumont et al, (1992) J. Exp. Med. 176:751-760) for 10 minutes before the addition of FK506 for 30 minutes at 37° C.

[2] = test system: calcineurin; assay: calcineurin activity in AtT20 cells (phosphocasein method); type: biochemical, mouse; conditions: 1 μmol/l FK506, phosphocasein
[3] = test system: AtT20 cells; assay: ACTH release by AtT20 cells; type: cell-based, mouse
[4] = test system: HEK293 cells; assay: CRF-induced and unstimulated cAMP in HEK293 cells without AC (wild type, sham or pcDNA3 vector); type: cell-based, human; conditions: FK506 2 μmol/l, L-685,818 100 μmol/l
Method: Both expression plasmids (10 μg) were transfected into SV40-transformed monkey embryonic kidney (COS-7) cells grown in DMEM and 10% fetal bovine serum to 70% confluency in 75 cm^2 flasks following the double DEAE-dextran transfection protocol (Ishikawa et al, (1992) Nucl. Acids Res. 20:4367), while only AC cDNA was transfected into adenovirus-transformed human embryonic kidney (HEK293) cells as these express endogenous receptors for CRF (F. A. Antoni, unpublished data). In control transfections pcDNA3 vector DNA replaced the AC expression construct. […]

[5] = test system: HEK293 cells transfected with AC; assay: cAMP in HEK293 cells transiently transfected with AC; type: cell-based, human; conditions: L-685,818 100 μmol/l
[6] = test system: HEK293 cells stably expressing AC; assay: cAMP production in HEK293 cell lines stably expressing AC; type: cell-based, human
Method: In particular cell lines derived from the human embryonic kidney cell line 293 (HEK293) have been generated and stably express AC. Briefly, the cells were transfected with pcDNA3 containing the full length AC DNA (clone JP 173—see Example 3) and cells were selected on the basis of resistance to G418 antibiotic (0.8 mg/ml) for 4 weeks. Individual clones of resistant cells were expanded and tested for cAMP production in response to CRF and the effects of immunosuppressants were also examined.

[7] = test system: HEK293 cells overexpressing human AC9; assay: Ca2+/calcineurin inhibition of cAMP production in HEK293 cells overexpressing human AC9; type: cell-based
Method: The complete coding sequence of human AC9 was cloned into the expression vector pcDNA3. This constuct and pcDNA3 (10 μg) were each linearised by PvuI digestion prior to electroporation into HEK293 cells. Stably transfected clones were selected for resistance to G418 (Gibco) at […] in Dulbecco's modified Eagle's medium (DMEM) supplemented with 10% foetal calf serum. A total of 12 clones were expanded and over-expression of human AC9 confirmed in 9 cell lines by immunoblotting using antisera raised against a pentadecapeptide derived from the N-terminus of mouse AC9 (Paterson et al, (1995) Biochem. Biophys. Res. Commun. 214:1000-8). […] Analysis of clone 7 is reported here.
HEK-293 cells display complex intracellular Ca2+ handling mechanisms that may be controlled by cAMP and calcineurin (Lin et al, (1995) Mol. Pharmacol. 47:131-9; Gromada et al, (1995) FEBS Letts. 373:182-6; Querfurth et al, (1998) Biochem J. 334:79-86), and thus complicate the interpretation of the data. Therefore, intracellular stores of Ca^2+ were depleted to reduce the contribution of intracellular Ca^2+ pools to the intracellular free Ca^2+ signal. […] Two different Ca^2+ depletion protocols were used (Antoni et al, (1998) supra). […] The total cAMP content of the cells and the medium was determined after freeze-thawing and acetylation by radioimmunoassay (Antoni et al, (1995) J. Biol. Chem. 270:28055-61).

[8] = biological target: FKBP-12 (Homo sapiens, UniProt P62942); conditions: cited from earlier work
[9] = test system: calcineurin; conditions: cited from earlier work

Chain of FKBP-12 (P62942 whole entry, species assumed): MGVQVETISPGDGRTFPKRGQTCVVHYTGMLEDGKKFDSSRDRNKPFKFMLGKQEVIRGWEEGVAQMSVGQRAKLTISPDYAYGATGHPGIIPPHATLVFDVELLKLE

For `CC[C@@H]1/C=C(\C)[C@@H](O)[C@H](C)C[C@H](OC)[C@H]2O[C@@](O)(C(=O)C(=O)N3CCCC[C@H]3C(=O)O[C@H](/C(C)=C/[C@@H]3CC[C@@H](O)[C@H](OC)C3)[C@H](C)[C@@H](O)CC1=O)[C@H](C)C[C@@H]2OC` [L685,818], the “cAMP formation, compound given alone” value [1] was “no discernible effect”, the “antagonism of the effect of FK506 on CRF-induced cAMP production” value ([1]; 10 nmol/l CRF) was “antagonized” and the “effect on the inhibition of calcineurin activity by FK506” value [2] was “blocked the inhibitory effect of FK506 on calcineurin-mediated dephosphorylation of phosphocasein”. For the same compound, the “ACTH secretion, compound given alone” value [3] was “no discernible effect; also recorded: no effect on basal ACTH secretion”, the “antagonism of the effect of FK506 on CRF-induced ACTH release” value ([3]; FK506 0.5 μmol/l) was “prevented” and the “cAMP levels in sham-transfected or pcDNA3-transfected cells” value [4] was “no effect in sham-transfected or pcDNA3-transfected cells”. The “cAMP response to CRF” value ([5]; FK506 2 μmol/l) was “no significant effect on CRF-induced cAMP production; also recorded: no effect on CRF-induced cAMP formation when given alone”, the “blockade of the enhancement of the CRF-induced cAMP response by FK506” value ([5]; 1 nmol/l CRF) was “blocked the enhancement of the response to 1 nmol/l CRF by FK506” and the “blockade of the FK506 effect on CRF-induced cAMP production” value [6] was “blocked”. The “cAMP production in hAC9 expressing cells” value [7] was “had no effect on cAMP production”, the “inhibitory effect of Ca2+ on cAMP production” value ([7]; FK506, cyclosporin A, rapamycin 10 μM, L685,818 50 μM, PDE blockers present) was “failed to block the inhibitory action of Ca^2+ on cAMP production” and the “FKBP-12 prolyl isomerase activity” value [8] was “potent inhibitor”. For the same compound, the blockade of calcineurin [9] was “does not block calcineurin” and the blockade of calcineurin ([9]; listed as L-685,818) was “do not inhibit calcineurin”.

Source: patent publication US20020142436A1, “Human adenylate cyclase and use therefor” (priority 1995, published 2002)
